# Source: patent US10787441B2, “Hepatitis C virus inhibitors” (priority 2016, dated 2020)
# Read-outs that look alike come from different tables or passages of the source.
# What was measured:
# Format in all cases: cell-based, Hepatitis C virus
# [1] = test system: HCV genotype 1a H77 strain subgenomic luciferase replicon; assay: HCV replicon assay, genotype 1a
# Method: (§1) The HCV luciferase replicon assay measures the ability of a test compound to inhibit HCV replication in cell culture after 3 days of treatment in a human hepatoma cell line (Huh-7) bearing an HCV replicon containing a luciferase-neomycin phosphotransferase fusion gene. The inhibition of HCV replication was measured by quantification of luciferase protein expression. Briefly, Huh-7 cells containing either the HCV genotype 1a H77 strain or genotype 1b Con1 strain subgenomic luciferase replicon (H1a-luc or Zluc, respectively) were grown in DMEM containing glucose, L-glutamine and sodium pyruvate, 10% fetal bovine serum (FBS), 100 IU/mL penicillin, 100 μg/mL streptomycin, 2 mM GlutaMAX, non-essential amino acids and 0.25 (H1a-luc) or 0.5 (Zluc) mg/mL G418. GlutaMAX was obtained from Invitrogen, Corp.; all other media reagents were obtained from Mediatech, Inc. For dose-response testing, the cells were seeded in 96-well plates at 1×10^4 (H1a-luc) or 7.5×10^3 (Zluc) cells/well in a volume of 50 μL, and incubated at 37° C./5% CO2. Three hours after plating, 50 μL of ten 5-fold serial dilutions of compound were added, and cell cultures were incubated at 37° C./5% CO2 for 72 hours. In all cases, Huh-7 cells lacking the HCV replicon served as negative control. To assess luciferase expression, the media/compound was removed from the plates and ONE-glo Luciferase assay reagent (Promega) was added to each well. The assay plates were shaken for 3 minutes at room temperature and luciferase activity for each well was measured with a 1 sec read time on the Victor^3V multilabel counter using a 700 nm cut-off filter (Perkin Elmer). EC50 values were calculated from dose response curves from the resulting best-fit equations determined by Microsoft Excel and XLfit 4.1 software.
# [2] = test system: HCV 1aY93H mutant replicon; assay: HCV replicon assay, genotype 1a Y93H mutant
# Method: General procedure: The luciferase replicon transient transfection assay measures the ability of a test compound to inhibit the replication of a transiently-transfected HCV luciferase-bearing wild-type or mutant replicon in cured human hepatoma cells (Huh7.5). The inhibition of HCV replication was measured by quantification of luciferase protein expression. This assay has been validated using a panel of genotype 1a and 1b replicons bearing mutations known to be associated with resistance to BMS-790052. Briefly, subconfluent Huh7.5 cells were electroporated with 10 μg of wild-type or mutant luciferase-bearing HCV replicon RNA. The cells were then seeded in 96-well opaque white plates at 3×10^4 cells/well in 150 μL/well and incubated for 4 hrs at 37° C./5% CO2. Ten 1:5 serial dilutions of each test compound were made in media (DMEM containing glucose, L-glutamine and sodium pyruvate, 10% fetal bovine serum, 100 IU/mL penicillin, 100 μg/mL streptomycin, 2 mM GlutaMAX, and 1×MEM non-essential amino acids (Mediatech, Inc. and Invitrogen Corp.)) at concentrations that were 4× higher than the final concentrations to be tested and 50 μL/well was added to the transfected cells. Untreated, mock-transfected cells served as a negative control of luciferase expression. The plates were incubated at 37° C./5% CO2 for 4 days whereupon the media was removed and 50 μL of ONE-glo luciferase substrate (Promega) was added to each well. The plates were agitated on a rotating platform at room temperature for 3 min and read in a Victor^3V microplate reader (Perkin-Elmer) using a 700 nm cut-off filter with a 1 sec read time. EC50 values were calculated from dose response curves from the resulting best-fit equations determined by Microsoft Excel and XLfit 4.1 software.
# HCV 2b = assay: HCV replicon assay, genotype 2b
# [3] = test system: HCV genotype 3a NS5A within the 1b-replicon; assay: HCV replicon assay, genotype 3a (NS5A intergenotypic stable cell line)
# Excerpt: The nucleotide sequences of the NS5A region of genotype 2a (GenBank Accession # AB047639), genotype 3a (GenBank Accession # D17763), and genotype 4a (GenBank Accession # DQ418788) were synthesized by an outside vendor. The NS5A region of each of these genotypes included the first 11 amino acids of the protease recognition sequence of genotype 1b, as well as the last 10 amino acids of genotype 1b. The NS5A gene cassettes were excised with site specific restriction endonucleases and ligated into a ZS11-luciferase genotype 1b backbone (backbone contains the genotype 1b NS3 protease, NS4a, NS4b, and NS5b coding regions) with similarly cut restriction enzyme sites. Thus, the newly constructed plasmid contains a genotype 2a-, 3a- or 4a-specific NS5A gene within the 1b-replicon.
# These new intergenotypic plasmids were used to establish stable cell lines. RNA was generated from the NS5A intergenotypic plasmids and used in conjunction with a lipofectin reagent to transfect a cured Huh7 cell line. Transfected cells were selected for with G418. After selection has occurred the stable cell lines were propagated, tested for luciferase activity, and RT-PCR with genotype specific primers (either 1a, 2a, 3a, or 4a). Stable cell lines containing the intergenotypic replicon were then fully sequenced and analyzed for proper expression of NS3, NS5A and NS5B proteins.
# Drug titration analysis was performed using the luciferase replicon assay described herein.
# as §1
# [4] = Hepatitis C virus, read-out: 1a IC50 (nM), HCV genotype 1a
# [5] = Hepatitis C virus, read-out: 1aY93H IC50 (nM), HCV genotype 1a, Y93H mutant
# [6] = Hepatitis C virus, read-out: 2b IC50 (nM), HCV genotype 2b
# [7] = read-out: 1a IC50, HCV genotype 1a
# [8] = read-out: 1aY93H IC50, HCV genotype 1a, Y93H mutant
# [9] = read-out: 3a IC50, HCV genotype 3a
SMILES,"IC50 [1, 4] [nM]","IC50 [2, 5] [nM]",IC50 (HCV 2b; [6]) [nM],further results
"O=c1c2cc(-c3cnc([C@@H]4CC(F)CN4)[nH]3)ccc2oc2c(F)c3ccc(-c4cnc([C@@H]5CC(F)CN5)[nH]4)cc3cc12 (stereo in doubt) [Compound 19, 6-fluoro-2,9-bis{2-[(2S,4S)-4-fluoropyrrolidin-2-yl]-1H-imidazol-5-yl}-12H-benzo[b]xanthen-12-one]",745,1390,–,–
"COC(=O)N[C@H](C(=O)N1CCC[C@H]1c1ncc(-c2ccc3c(c2)Oc2ccc4cc(-c5cnc([C@@H]6CCCN6C(=O)[C@@H](NC(=O)OC)C(C)C)[nH]5)ccc4c2C3(C)C)[nH]1)C(C)C [Compound 7, methyl [(1S)-1-({(2S)-2-[5-(3-{2-[(2S)-1-{(2S)-2-[(methoxycarbonyl)amino]-3-methylbutanoyl}pyrrolidin-2-yl]-1H-imidazol-5-yl}-12,12-dimethyl-12H-benzo[a]xanthen-9-yl)-1H-imidazol-2-yl]pyrrolidin-1-yl}carbonyl)-2-methylpropyl]carbamate]",0.0029,17.8,11,–
"CC(C)(C)NC(=O)N1CC(F)C[C@H]1c1ncc(-c2ccc3c(F)c4oc5ccc(-c6cnc([C@@H]7CC(F)CN7C(=O)NC(C)(C)C)[nH]6)cc5c(=O)c4cc3c2)[nH]1 (stereo in doubt) [Compound 23, (2S,4S,2′S,4′S)-2,2′-[(6-fluoro-12-oxo-12H-benzo[b]xanthene-2,9-diyl)bis(1H-imidazole-5,2-diyl)]bis(N-tert-butyl-4-fluoropyrrolidine-1-carboxamide)]",53.5,436,≥ 1000,–
"CCC1c2ccc(-c3cnc([C@@H]4CCCN4C(=O)[C@@H](NC(=O)OC)C(C)C)[nH]3)cc2Oc2ccc3cc(-c4cnc([C@@H]5CCCN5C(=O)[C@@H](NC(=O)OC)C(C)C)[nH]4)ccc3c21 (single isomer, unassigned) [Compound 6]",–,–,–,"IC50 [1, 7]: 0.0027 nM; IC50 [2, 8]: 15 nM; IC50 (HCV 2b; read-out: 2b IC50, HCV genotype 2b): 12.8 nM; IC50 [3, 9]: 1.72 nM"
"CC(C)(C)NC(=O)N1CC(F)C[C@H]1c1ncc(-c2ccc3c(ccc4oc5cc(-c6cnc([C@@H]7C[C@@H](F)CN7C(=O)NC(C)(C)C)[nH]6)ccc5c(=O)c43)c2)[nH]1 (stereo in doubt) [Compound 21, (2S,4R,2′S,4′S)-2,2′-[(12-oxo-12H-benzo[a]xanthene-3,9-diyl)bis(1H-imidazole-5,2-diyl)]bis(N-tert-butyl-4-fluoropyrrolidine-1-carboxamide)]",63.1,96.2,505,–
"CC(C)(C)OC(=O)N1CC(F)C[C@H]1c1ncc(-c2ccc3c(F)c4oc5ccc(-c6cnc([C@@H]7CC(F)CN7C(=O)OC(C)(C)C)[nH]6)cc5c(=O)c4cc3c2)[nH]1 (stereo in doubt) [Compound 24, di-tert-butyl (2S,4S,2′S,4′S)-2,2′-[(6-fluoro-12-oxo-12H-benzo[b]xanthene-2,9-diyl)bis(1H-imidazole-5,2-diyl)]bis(4-fluoropyrrolidine-1-carboxylate)]",425,2460,–,–
"O=c1c2ccc(-c3cnc([C@@H]4CC(F)CN4)[nH]3)cc2oc2ccc3cc(-c4cnc([C@@H]5C[C@@H](F)CN5)[nH]4)ccc3c12 (stereo in doubt) [Compound 18, 3-{2-[(2S,4R)-4-fluoropyrrolidin-2-yl]-1H-imidazol-5-yl}-9-{2-[(2S,4S)-4-fluoropyrrolidin-2-yl]-1H-imidazol-5-yl}-12H-benzo[a]xanthen-12-one]",208,147,–,–
"CC(C)(C)OC(=O)N1CC(F)C[C@H]1c1ncc(-c2ccc3c(ccc4oc5cc(-c6cnc([C@@H]7C[C@@H](F)CN7C(=O)OC(C)(C)C)[nH]6)ccc5c(=O)c43)c2)[nH]1 (stereo in doubt) [Compound 22, di-tert-butyl (2S,4R,2′S,4′S)-2,2′-[(12-oxo-12H-benzo[a]xanthene-3,9-diyl)bis(1H-imidazole-5,2-diyl)]bis(4-fluoropyrrolidine-1-carboxylate)]",291,717,–,–
"CCN(CC)[C@@H](C(=O)N1C[C@H](F)C[C@H]1c1ncc(-c2ccc3c(ccc4oc5cc(-c6cnc([C@@H]7C[C@@H](F)CN7C(=O)[C@@H](c7ccccc7)N(CC)CC)[nH]6)ccc5c(=O)c43)c2)[nH]1)c1ccccc1 [Compound 31, 3,9-bis(2-{(2S,4R)-1-[(2R)-2-(diethylamino)-2-phenylacetyl]-4-fluoropyrrolidin-2-yl}-1H-imidazol-5-yl)-12H-benzo[a]xanthen-12-one]",0.31,506,797,"IC50 ([3]; Hepatitis C virus, read-out: 3a IC50 (nM), HCV genotype 3a): 0.0262 nM"
"COC(=O)N[C@H](C(=O)N1CCC[C@@H]1c1ncc(-c2ccc3oc4c(ccc5cc(-c6cnc([C@H]7CCCN7C(=O)[C@H](NC(=O)OC)C(C)C)[nH]6)ccc54)c(=O)c3c2)[nH]1)C(C)C [Compound 1, methyl [(1R)-1-({(2R)-2-[5-(9-{2-[(2R)-1-{(2S)-2-[(methoxycarbonyl)amino]-3-methylbutanoyl}pyrrolidin-2-yl]-1H-imidazol-5-yl}-7-oxo-7H-benzo[c]xanthen-3-yl)-1H-imidazol-2-yl]pyrrolidin-1-yl}carbonyl)-2-methylpropyl]carbamate]",0.0204,66,–,–
"COC(=O)N[C@H](C(=O)N1CCC[C@H]1c1ncc(-c2ccc3c(c2)C(C)c2ccc4cc(-c5cnc([C@@H]6CCCN6C(=O)[C@@H](NC(=O)OC)C(C)C)[nH]5)ccc4c2O3)[nH]1)C(C)C (stereo partly drawn) [Compound 4, methyl [(1S)-1-({(2S)-2-[5-(3-{2-[(2S)-1-{(2S)-2-[(methoxycarbonyl)amino]-3-methylbutanoyl}pyrrolidin-2-yl]-1H-imidazol-5-yl}-7-methyl-7H-benzo[c]xanthen-9-yl)-1H-imidazol-2-yl]pyrrolidin-1-yl}carbonyl)-2-methylpropyl]carbamate]",0.0057,48.8,–,–
"CCC1c2ccc(-c3cnc([C@@H]4CCCN4C(=O)[C@@H](NC(=O)OC)C4CCOCC4)[nH]3)cc2Oc2ccc3cc(-c4cnc([C@@H]5CCCN5C(=O)[C@@H](NC(=O)OC)C5CCOCC5)[nH]4)ccc3c21 (single isomer, unassigned) [Compound 14]",–,–,–,"IC50 [1, 7]: 0.0042 nM; IC50 [2, 8]: 0.221 nM; IC50 [3, 9]: 0.034 nM"
